Results on 14 molecules are retold here after US7119113B2, “Oxazoles as mGluR1 enhancers” (Hoffmann-La Roche Inc., priority 2002, dated 2006).

Series [1] in a line: Microsome incubation, rat liver microsomes (metabolic stability). Type of series: in vitro ADME. As to conditions: for MAB (rat): maximal achievable bioavailability = 1−E (hepatic extraction ratio), extrapolated from rat microsomal clearance; for microsomal CLint at 10 μM: pH 7.4, rat liver microsomes 1.0 mg prot/mL, test compound 10 μM, 37° C., NADPH regenerating system, calculated from in vitro half-life, read-out: Intrinsic clearance (rat). How it is done: (§1) The compounds of formula I of the present invention are further characterized by high metabolic stability. This parameter is a prerequisite for good bioavailability, which is necessary to obtain medicaments with acceptable in-vivo activity. The metabolic stability has been tested by the following method:
(§2) Incubation mixtures consisted of liver microsomes (rat 1.0 mg prot/mL or human 2.0 mg prot/mL), test compound 10 μM, MgCl2 (3.3 mM), and an NADPH regenerating system consisting of glucose-6-phosphate dehydrogenase, NADPH and glucose-6-phosphate (equivalent to 1 mM NADPH) in a total volume of 1.0 mL of potassium phosphate buffer 100 mM pH 7.4. Reactions were initiated by addition of the NADPH regenerating system at 37° C. At the time of 1, 5, 9, 13, 17, 21, 25, and 29 min a 5 μL aliquot was directly analysed on a HPLC-MS/MS system consisting of a HP 1100 quaternary pump with degasser and a PE-Sciex API-2000 MS/MS spectrometer. The analytical column was a Waters Symmetry Shield RP8 (2.1*50 mm with a […] particle size). A polarity non linear gradient from phase A (MeOH/Ac. Form.1% 20/80) to phase B (MeOH) was applied for a total run time of 2 minutes at a flow rate of 0.25 mL/min. The PE-Sciex API-2000 MS/MS spectrometer was used for detection of the parent compound. In vivo metabolic clearance was predicted according to published procedures [Houston, Biochem. Pharmacol. 47:1469–1479 (1994)]. In brief, the intrinsic clearance (Clearance, see table below) is calculated from the measured in vitro half-life taking into account incubation volume and microsomal protein used for the in vitro incubation. The intrinsic clearance is expressed in terms of μl/min/mg microsomal protein. For in vivo extrapolations, the hepatic extraction ratio (E) was calculated. Here it is reported the % MAB value which is equal to 1−E. The MAB (maximal achievable bioavailability) values express the maximal bioavailability that one can achieve with the given clearance values.

Series [2] in a line: Microsome incubation, human liver microsomes (metabolic stability). The format is in vitro ADME. The following applies: for MAB (human): maximal achievable bioavailability = 1−E (hepatic extraction ratio), extrapolated from human microsomal clearance; for microsomal CLint at 10 μM: pH 7.4, human liver microsomes 2.0 mg prot/mL, test compound 10 μM, 37° C., NADPH regenerating system, calculated from in vitro half-life, read-out: Intrinsic clearance (human). The protocol: as §1, §2

For another series, the target named is T1, rat mGlu 1a receptor (Rattus norvegicus, UniProt P23385).
T1 construct: expressed in transfected cells; host or cells: EBNA cells (transient transfection)
Kind of series: [Ca2+]i measurement (FLIPR) on mGlu 1a transfected EBNA cells (headed "Binding Assay"). Type of series: cell-based. The following applies: rat mGlu 1a transiently transfected EBNA cells, Fluo-3 AM, activation (agonist) curves. How it is done:
The compounds of the present invention are group I mGlu receptor agonists. The compounds show activities, as measured in the below binding assay, of 0.2 μM or less.
cDNA encoding rat mGlu 1a receptor obtained from Prof. S. Nakanishi (Kyoto, Japan) was transiently transfected into EBNA cells using a procedure described by Schlaeger et al, New Dev. New Appl. Anim. Cell Techn., Proc. ESACT Meet., 15, (1998), 105–112 and 117–120. [Ca^2+]i measurements were performed on mGlu 1a transfected EBNA cells after incubation of the cells with Fluo-3 AM (0.5 μM final concentration) for 1 hour at 37° C. followed by 4 washes with assay buffer (DMEM supplemented with Hank's salt and 20 mM HEPES. [Ca^2+]i measurements were done using a fluorometric imaging plate reader (FLIPR, Molecular Devices Corporation, La Jolla, Calif., USA). When compounds were evaluated as antagonists they were tested against 10 μM glutamate as agonist.
The activation (agonists) curves were fitted with a four parameter logistic equation giving EC50, and Hill coefficient using the iterative non linear curve fitting software Origin (Microcal Software Inc., Northampton, Mass., USA).
In the table below are shown specific EC50 values of compounds of formula I: […]

T1 sequence (P23385 19-1199): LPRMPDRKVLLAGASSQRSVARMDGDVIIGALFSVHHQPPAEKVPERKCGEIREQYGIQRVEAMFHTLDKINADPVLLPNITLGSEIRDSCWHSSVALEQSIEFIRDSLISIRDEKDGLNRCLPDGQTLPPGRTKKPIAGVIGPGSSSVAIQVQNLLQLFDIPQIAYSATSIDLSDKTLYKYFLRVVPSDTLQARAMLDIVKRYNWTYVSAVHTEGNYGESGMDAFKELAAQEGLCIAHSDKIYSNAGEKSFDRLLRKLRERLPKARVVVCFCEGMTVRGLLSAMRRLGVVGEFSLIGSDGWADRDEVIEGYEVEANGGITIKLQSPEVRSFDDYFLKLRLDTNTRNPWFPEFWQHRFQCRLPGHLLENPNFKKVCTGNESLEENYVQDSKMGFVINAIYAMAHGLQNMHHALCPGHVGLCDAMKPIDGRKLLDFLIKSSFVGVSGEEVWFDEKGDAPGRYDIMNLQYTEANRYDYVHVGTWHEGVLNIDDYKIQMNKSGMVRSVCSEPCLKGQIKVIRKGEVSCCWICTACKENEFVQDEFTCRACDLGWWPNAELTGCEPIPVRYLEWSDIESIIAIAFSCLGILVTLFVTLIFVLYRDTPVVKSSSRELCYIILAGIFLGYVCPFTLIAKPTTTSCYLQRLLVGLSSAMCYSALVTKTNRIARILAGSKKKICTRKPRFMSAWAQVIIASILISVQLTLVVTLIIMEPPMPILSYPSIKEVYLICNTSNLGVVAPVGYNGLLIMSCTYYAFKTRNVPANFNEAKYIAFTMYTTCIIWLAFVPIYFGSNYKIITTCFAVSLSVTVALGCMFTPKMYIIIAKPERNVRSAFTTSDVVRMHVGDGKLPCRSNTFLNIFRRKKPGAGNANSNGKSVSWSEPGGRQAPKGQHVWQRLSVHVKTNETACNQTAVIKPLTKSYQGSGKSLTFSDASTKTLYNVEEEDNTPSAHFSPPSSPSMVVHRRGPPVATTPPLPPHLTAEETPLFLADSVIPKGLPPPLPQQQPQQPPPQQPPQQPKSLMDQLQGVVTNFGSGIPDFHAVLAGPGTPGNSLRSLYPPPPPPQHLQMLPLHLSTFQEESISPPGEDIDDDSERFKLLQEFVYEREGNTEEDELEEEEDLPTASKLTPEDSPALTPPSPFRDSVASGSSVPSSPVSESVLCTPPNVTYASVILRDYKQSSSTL

Molecule `O=C(Nc1nc(C(F)(F)F)co1)C1c2ccccc2Oc2ccc(F)cc21` (racemic) [Example 3, (RS)-2-Fluoro-9H-xanthene-9-carboxylic Acid (4-trifluoromethyl-oxazol-2-yl)-amide] returned a melting point of 241 °C. Besides, in series [1], the “MAB (rat)” value is on record as 32% and the microsomal CLint at 10 μM is 61.4 µL/min/mg. For the same molecule, in series [2], the “MAB (human)” value is recorded as 61% and the microsomal CLint at 10 μM was 9.9 µL/min/mg. At rat mGlu 1a receptor, this molecule had an EC50 of 55 nM.
`O=C(Nc1ncc(C(F)(F)F)o1)C1c2ccccc2Oc2ccc(F)cc21` (racemic) [Example 4, (RS)-2-Fluoro-9H-xanthene-9-carboxylic Acid (5-trifluoromethyl-oxazol-2-yl)-amide] came in with a melting point of 217 °C. Besides, in series [1], the “MAB (rat)” value was 43% and the microsomal CLint at 10 μM was 40.2 µL/min/mg. In addition, in series [2], the “MAB (human)” value is 45% and the microsomal CLint at 10 μM was 18.8 µL/min/mg. Moreover, the EC50 on rat mGlu 1a receptor worked out at 20 nM.
`O=C(Nc1nc(C(F)(F)F)co1)C1c2ccccc2Oc2cc(F)ccc21` (racemic) [Example 5, (RS)-3-Fluoro-9H-xanthene-9-carboxylic Acid (4-trifluoromethyl-oxazol-2-yl)-amide] gave a melting point of 221 °C. For the same molecule, in series [1], the “MAB (rat)” value is listed as 46% and the microsomal CLint at 10 μM is 34.3 µL/min/mg. In series [2], the “MAB (human)” value was 78% and the microsomal CLint at 10 μM is 4.3 µL/min/mg. On rat mGlu 1a receptor, this molecule came in with an EC50 of 40 nM.
On to `O=C(Nc1ncc(C(F)(F)F)o1)C1c2ccccc2Oc2cc(F)ccc21` (racemic) [Example 6, (RS)-3-Fluoro-9H-xanthene-9-carboxylic Acid (5-trifluoromethyl-oxazol-2-yl)-amide], for which the melting point came to 250 °C. Further, in series [1], the “MAB (rat)” value was 52% and the microsomal CLint at 10 μM is 27.8 µL/min/mg. In addition, in series [2], the “MAB (human)” value is given as 63% and the microsomal CLint at 10 μM was 9.2 µL/min/mg.
Consider `O=C(Nc1nc(C(F)(F)F)co1)C1c2ccccc2Oc2c(F)cccc21` (racemic) [Example 7, (RS)-4-Fluoro-9H-xanthene-9-carboxylic Acid (4-trifluoromethyl-oxazol-2-yl)-amide], for which the melting point worked out at 233 °C. Moreover, in series [1], the “MAB (rat)” value is recorded as 48% and the microsomal CLint at 10 μM was 32.8 µL/min/mg. In series [2], the “MAB (human)” value was 67% and the microsomal CLint at 10 μM is 7.9 µL/min/mg. Besides, it took 16 nM to reach a half-maximal effect at rat mGlu 1a receptor (EC50).
Turning to `O=C(Nc1ncc(C(F)(F)F)o1)C1c2ccccc2Oc2c(F)cccc21` (racemic) [Example 8, (RS)-4-Fluoro-9H-xanthene-9-carboxylic Acid (5-trifluoromethyl-oxazol-2-yl)-amide], the melting point was found to be 228 °C. In series [1], the “MAB (rat)” value is 49% and the microsomal CLint at 10 μM is 31.8 µL/min/mg. Also, in series [2], the “MAB (human)” value is recorded as 45% and the microsomal CLint at 10 μM is 19.2 µL/min/mg. On rat mGlu 1a receptor, this molecule had an EC50 of 21 nM.
In the case of `O=C(Nc1nc(C(F)(F)F)co1)C1c2ccccc2Oc2ccc(Cl)cc21` (racemic) [Example 13, (RS)-2-Chloro-9H-xanthene-9-carboxylic Acid (4-trifluoromethyl-oxazol-2-yl)-amide], the melting point was 235 °C. Besides, the response at rat mGlu 1a receptor was half-maximal at 15 nM (EC50).
The molecule `O=C(Nc1nc(C(F)(F)F)co1)C1c2ccccc2Oc2c(Cl)cccc21` (racemic) [Example 14, (RS)-4-Chloro-9H-xanthene-9-carboxylic Acid (4-trifluoromethyl-oxazol-2-yl)-amide] yielded a melting point of 212 °C. At rat mGlu 1a receptor, this molecule registered an EC50 of 93 nM.
Consider `O=C(Nc1nc(C(F)(F)F)co1)C1c2ccccc2Oc2ccccc21` [Example 1, 9H-Xanthene-9-carboxylic acid (4-trifluoromethyl-oxazol-2-yl)-amide], for which, in series [1], the “MAB (rat)” value is listed as 25% and the microsomal CLint at 10 μM was 108 µL/min/mg. Besides, in series [2], the “MAB (human)” value is given as 68% and the microsomal CLint at 10 μM is 8 µL/min/mg. For the same molecule, a half-maximal response at rat mGlu 1a receptor (EC50) required 56 nM.
For the molecule `O=C(Nc1ncc(C(F)(F)F)o1)C1c2ccccc2Oc2ccccc21` [Example 2, 9H-Xanthene-9-carboxylic Acid (5-trifluoromethyl-oxazol-2-yl)-amide], the melting point came to 218 °C. For the same molecule, in series [1], the “MAB (rat)” value is reported as 37% and the microsomal CLint at 10 μM was 50 µL/min/mg. In series [2], the “MAB (human)” value was 68% and the microsomal CLint at 10 μM was 14 µL/min/mg. This molecule displayed an EC50 on rat mGlu 1a receptor of 38 nM.
For the molecule `O=C(Nc1nc(C(F)(F)F)co1)C1c2cc(F)ccc2Oc2ccc(F)cc21` [Example 9, 2,7-Difluoro-9H-xanthene-9-carboxylic Acid (4-trifluoromethyl-oxazol-2-yl)-amide], the melting point is 259 °C. Besides, in series [1], the “MAB (rat)” value is 77% and the microsomal CLint at 10 μM was 8.9 µL/min/mg. Besides, in series [2], the “MAB (human)” value was 85% and the microsomal CLint at 10 μM is 2.7 µL/min/mg. On rat mGlu 1a receptor, this molecule returned an EC50 of 44 nM.
`O=C(Nc1ncc(C(F)(F)F)o1)C1c2cc(F)ccc2Oc2ccc(F)cc21` [Example 10, 2,7-Difluoro-9H-xanthene-9-carboxylic Acid (5-trifluoromethyl-oxazol-2-yl)-amide] registered a melting point of 232 °C. Also, in series [1], the “MAB (rat)” value is reported as 54% and the microsomal CLint at 10 μM is 26.1 µL/min/mg. Also, in series [2], the “MAB (human)” value is 73% and the microsomal CLint at 10 μM is 5.6 µL/min/mg. The molecule also yielded an EC50 at rat mGlu 1a receptor of 124 nM.
In turn, `O=C(Nc1nc(C(F)(F)F)co1)C1c2ccc(F)cc2Oc2cc(F)ccc21` [Example 11, 3,6-Difluoro-9H-xanthene-9-carboxylic Acid (4-trifluoromethyl-oxazol-2-yl)-amide] returned a melting point of 265 °C. In series [1], the “MAB (rat)” value is reported as 63% and the microsomal CLint at 10 μM is 17.6 µL/min/mg. Also, in series [2], the “MAB (human)” value is on record as 59% and the microsomal CLint at 10 μM is 11.1 µL/min/mg. At rat mGlu 1a receptor, this molecule returned a half-maximal effective concentration (EC50) of 3 nM.
For `O=C(Nc1ncc(C(F)(F)F)o1)C1c2ccc(F)cc2Oc2cc(F)ccc21` [Example 12, 3,6-Difluoro-9H-xanthene-9-carboxylic Acid (5-trifluoromethyl-oxazol-2-yl)-amide], the melting point came to 249 °C. Moreover, in series [1], the “MAB (rat)” value is listed as 72% and the microsomal CLint at 10 μM is 11.6 µL/min/mg. Moreover, in series [2], the “MAB (human)” value is given as 63% and the microsomal CLint at 10 μM was 9.1 µL/min/mg. The molecule also came in with an EC50 at rat mGlu 1a receptor of 25 nM.

For orientation: melting point means the temperature, or range, at which the solid turns liquid. Broadly, the EC50 is the midpoint of the concentration-response curve. High values mean weaker potency, low ones greater potency.
